ChEMBL document CHEMBL1157929, “Thioether benzenesulfonamide inhibitors of carbonic anhydrases II and IV: structure-based drug design, synthesis, and biological evaluation” (Bioorg Med Chem, 2010)
In brackets after ≈: the same amount, converted by molar mass.

Legend:
[1] = Solubility at pH 6.5 after 24 hrs by chemiluminescence assay; assay type: physicochemical; settings: buffer
physchem = settings: buffer, pH 6.5

Row | SMILES | solubility at 24 h [1] | solubility thermodynamic at 4 h (physchem)
1 | COCCCNC(=O)c1cc(S(N)(=O)=O)cnc1Sc1ccc(F)c(F)c1 | 40.9 µM (≈ 17.1 µg/mL) | 
2 | COc1ccc(CNC(=O)c2cc(S(N)(=O)=O)cnc2Sc2ccc(F)c(F)c2)cc1 | < 19.9 µM | 
3 | COCCCNC(=O)c1cc(S(N)(=O)=O)cnc1Sc1cccc(F)c1 | 89.6 µM (≈ 35.8 µg/mL) | 
4 | NS(=O)(=O)c1ccc(Sc2c(F)c(F)cc(F)c2F)c(C(=O)NCCc2ccccn2)c1 | 211 µM (≈ 102 µg/mL) | 
5 | CCNCc1cc(S(N)(=O)=O)cnc1Sc1ccc(F)c(F)c1 | 449 µM (≈ 161 µg/mL) | 
6 | COCCCNCc1cc(S(N)(=O)=O)cnc1Sc1ccc(F)c(F)c1 | 497 µM (≈ 201 µg/mL) | 
7 | CCNC(=O)c1cc(S(N)(=O)=O)cc(F)c1SCC(C)C | 553 µM (≈ 185 µg/mL) | 395 µM (≈ 132 µg/mL)
8 | NS(=O)(=O)c1ccc(Sc2c(F)c(F)cc(F)c2F)nc1 | 558 µM (≈ 189 µg/mL) | 231 µM (≈ 78.1 µg/mL)
9 | CC(C)CNC(=O)c1cc(S(N)(=O)=O)ccc1SC(C)C | 689 µM (≈ 228 µg/mL) | 
10 | CCNC(=O)c1cc(S(N)(=O)=O)ccc1SC1CCCC1 | 628 µM (≈ 206 µg/mL) | 
11 | CCNC(=O)c1cc(S(N)(=O)=O)cnc1Sc1cccc(F)c1 | 43.2 µM (≈ 15.4 µg/mL) | 
12 | NS(=O)(=O)c1cnc(Sc2ccc(F)c(F)c2)c(CO)c1 | > 353 µM | 
13 | CN(C)CCNC(=O)c1cc(S(N)(=O)=O)cnc1Sc1ccccc1 | > 265 µM | 
14 | COCCNC(=O)c1cc(S(N)(=O)=O)cnc1Sc1ccccc1 | 35.6 µM (≈ 13.1 µg/mL) | 
15 | NS(=O)(=O)c1cnc(Sc2c(F)c(F)cc(F)c2F)c(C(=O)NCc2ccccn2)c1 | < 21.2 µM | 
16 | CCNC(=O)c1cc(S(N)(=O)=O)cc(F)c1SC(C)C | 498 µM (≈ 160 µg/mL) | 
17 | COCCCNC(=O)c1cc(S(N)(=O)=O)cnc1Sc1ccccc1 | > 287 µM | 
18 | CCCNC(=O)c1cc(S(N)(=O)=O)cnc1Sc1ccccc1 | 156 µM (≈ 54.8 µg/mL) | 
19 | COCCCNC(=O)c1cc(S(N)(=O)=O)cnc1Sc1c(F)c(F)cc(F)c1F | 214 µM (≈ 97 µg/mL) | 124 µM (≈ 56.2 µg/mL)
20 | NCCCCNC(=O)c1cc(S(N)(=O)=O)cnc1Sc1c(F)c(F)cc(F)c1F | > 265 µM | 3090 µM (≈ 1400 µg/mL)
21 | COc1ccc(CCCNC(=O)c2cc(S(N)(=O)=O)cnc2Sc2c(F)c(F)cc(F)c2F)cc1 | < 19 µM | 

Results, then the compound that gave them:

Row | solubility at 24 h [1] | solubility thermodynamic at 4 h (physchem) | SMILES
22 | 118 µM (≈ 39.8 µg/mL) |  | CCNC(=O)c1cc(S(N)(=O)=O)cnc1Sc1ccccc1
23 | < 22.2 µM |  | NS(=O)(=O)c1cnc(Sc2ccccc2)c(C(=O)NCCc2ccccc2)c1
24 | > 275 µM |  | NS(=O)(=O)c1ccc(Sc2ccccc2)c(C(=O)NCc2ccccn2)c1
25 | > 304 µM |  | COCCNC(=O)c1cc(S(N)(=O)=O)ccc1SCCc1ccccc1
26 | 205 µM (≈ 69 µg/mL) |  | CCNC(=O)c1cc(S(N)(=O)=O)ccc1Sc1ccccc1
27 | 28.5 µM (≈ 10.9 µg/mL) |  | NS(=O)(=O)c1ccc(Oc2ccccc2)c(C(=O)NCc2ccccc2)c1
28 | < 24.2 µM |  | NS(=O)(=O)c1ccc(SCc2ccccc2)c(C(=O)NCc2ccccc2)c1
29 | > 258 µM |  | NS(=O)(=O)c1ccc(Sc2ccccc2CO)c(C(=O)NCc2ccccn2)c1
30 | > 253 µM |  | NS(=O)(=O)c1ccc(Sc2ccccn2)c(C(=O)NCc2ccccn2)c1
31 | < 25.1 µM |  | NS(=O)(=O)c1ccc(Sc2ccccc2)c(C(=O)NCc2ccccc2)c1
32 | 55.9 µM (≈ 24.1 µg/mL) |  | NS(=O)(=O)c1ccc(S(=O)(=O)c2ccccc2)c(C(=O)NCc2ccccc2)c1
